In patent US9522908B2, “Ezrin inhibitors and methods of making and using” (Georgetown University, priority 2010, dated 2016):

What was measured:
[1] = target: T1, ezrin T567 phosphorylation by PKC,τ (Mus musculus, UniProt P26040); assay: In vitro kinase assay: recombinant ezrin T567 phosphorylation by PKC,τ; assay type: biochemical; conditions: phosphospecific antibody immunoblot densitometry
T1 construct: Recombinant full length ezrin was prepared to a concentration of 100 μg/ml; host or cells: E. coli M15pREP4 (ezrin)
T1 sequence (P26040 whole entry): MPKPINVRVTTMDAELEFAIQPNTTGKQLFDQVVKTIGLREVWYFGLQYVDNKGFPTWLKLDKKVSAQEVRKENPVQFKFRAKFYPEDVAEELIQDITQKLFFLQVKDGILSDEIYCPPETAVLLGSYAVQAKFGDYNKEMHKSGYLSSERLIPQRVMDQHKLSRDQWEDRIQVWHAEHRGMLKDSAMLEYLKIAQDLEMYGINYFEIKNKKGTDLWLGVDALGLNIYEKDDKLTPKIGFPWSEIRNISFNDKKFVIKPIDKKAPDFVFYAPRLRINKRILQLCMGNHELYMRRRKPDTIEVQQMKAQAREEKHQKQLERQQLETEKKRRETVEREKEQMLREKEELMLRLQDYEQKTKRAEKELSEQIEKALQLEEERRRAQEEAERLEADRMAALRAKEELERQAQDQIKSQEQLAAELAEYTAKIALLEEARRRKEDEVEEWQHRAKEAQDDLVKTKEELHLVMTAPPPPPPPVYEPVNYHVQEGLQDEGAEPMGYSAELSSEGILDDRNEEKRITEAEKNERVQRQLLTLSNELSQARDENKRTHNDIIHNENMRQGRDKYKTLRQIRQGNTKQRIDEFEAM
Description: FIG. 2 illustrates NSC305787 and NSC668394 inhibit ezrin T567 phosphorylation. (A) K7M2 metastatic OS cell line was treated with NSC305787 (10 μM) and NSC668394 (10 μM) for 6 hours. […] The effect of NSC305787 and NSC668394 on recombinant ezrin phosphorylation by recombinant PKC, was tested in an in vitro kinase assay. Phoshorylation of ezrin was detected by a phosphospecific antibody following PAGE and immunoblotting. Experiments were repeated three times and densitometric analysis of bands was used for calculation of % inhibition (graphs). Error bars represents s.d. from three independent experiments. Kinase activities of PKC,τ, PKC,α and PKC,γ were also evaluated with a nonspecific substrate in the presence of NSC305787 and NSC668394 by a radioactive in vitro kinase assay. Data analysis was done by using a sigmoidal dose-response equation where log EC50 for each curve with the ezrin substrate and the non-specific substrate were compared to each other (P=0.0118 for NSC305787 and P=0.0084 for NSC668394).
500 ng of recombinant ezrin protein in kinase assay mix (200 μM ATP) was incubated with the compounds at 1-100 μM concentrations for 15 minutes on ice, then 50 ng PKC,τ (Millipore, Billerica, Mass.) was added. Reaction was performed at 30° C. for 30 min and stopped by adding 2× sample buffer. […]

zebrafish embryos = assay: Zebrafish embryo development assay; assay type: in vivo, Zebrafish (Danio rerio)
Description: Animals. Zebrafish (Danio rerio) were raised, maintained and crossed as described before (Westerfield, M. University of Oregon Press, Eugene. Or., 1993). Development of embryos was studied at 28° C. and staging was determined by morphological characteristics (Kimmel, C. B., et al., Dev. Dyn. 203, 253-310 (1995)).
A translation blocking anti-ezrin morpholino oligonucleotide (MO), described and validated by Link et al. (Link, V., et al., J. Cell Sci., 119, 2073-2083 (2006)), MO1, 5′-[…] (SEQ ID NO:1), was synthesized by Gene-Tools, LCC (Philomath, Oreg.). MOs were microinjected into one to four cell stage embryos.
Zebrafish embryos were arrayed, three per well, in 96-well plates. Compounds were added at 1-33 μM concentrations. Embryos were observed, and photographed, at 70% epiboly, 24-28 hours post fertilization (hpf) and 48 hpf.

K12 cells = assay: Invasion of HUVEC monolayer by K12 cells (ECIS, xCELLigence); assay type: cell-based
Description: (§1) FIG. 3 illustrates NSC305787 and NSC668394 inhibit ezrin mediated invasion of OS cells. (A) Endogenous ezrin protein levels in K12 and K7M2 cells are shown. Equal loading is determined by blotting with an actin antibody. […] Error bars represent standard deviation from duplicate data points. The experiments were performed in duplicates. Cell index is a measurement parameter with no units. In this assay a decrease in cell index represents invasion of HUVEC layer by OS cells. It is measured according to the following formula: Cell index=((Rt−R0)/F where, Rt is resistance at time point t, R0 is background resistance (measured with media alone, no cells), and F is frequency at which measurement is taken (10 kHz).
(§2) The anti-invasive potential of NSC305787 and NSC668394 were evaluated by using electric cell impedance sensing (ECIS) on a Roche xCELLigence system (Roche, Indianapolis, Ind.). Briefly, HUVEC cells (25,000/well) were seeded in a 96-well plate in EGM-2 media (Lonza, Basel, CH). Following formation of a confluent HUVEC monolayer (app 32 hrs), EGM-2 media was aspirated and a layer of OS cells (10,000 cells/well) was added in DMEM media containing the compounds. This time point was accepted as 0 hr of treatment and invasion was monitored during the following 6 hrs by measuring changes in resistance at the cell-electrode interphase.

K7M2 cells = assay: Invasion of HUVEC monolayer by K7M2 cells (ECIS, xCELLigence); assay type: cell-based; conditions: 1 μM and 10 μM, vs control 1% DMSO
Description: as §1, §2

MNNG, human OS cells = assay: In vivo experimental lung metastasis model, ezrin independent MNNG cells; parameters: species or system mice
Description: FIG. 6 illustrates NSC305787 and NSC668394 inhibit in vivo OS metastatic growth in lungs. (A) K7M2 metastatic OS tumor cells (1×10^6) were injected via tail vein. Vehicle (1% DMSO), NSC305787 (240 μg/kg) and NSC668394 (226 μg/kg) were injected 5 days a week intraperitoneally. Kaplan-Meier survival curves show percent survival for NSC305787 and NSC668394 treatment over time. Median survival of vehicle, NSC305787 and NSC668394 treated K7M2 cells were 28.5, 50, and 49 days after tumor cell injection. […] (B) Fluorescence pictures of whole lungs are given. […] (C) GFP expressing ezrin independent MNNG, human OS cells were injected to mice and treated with vehicle (1% DMSO), NSC305787 (240 μg/kg) and NSC668394 (226 μg/kg). Survival of each group is not different probably because MNNG is an ezrin independent cell line. Median survival of vehicle, NSC305787 and NSC668394 treated MNNG cells were 50.5, 49, and 48.5 days after tumor cell injection. (D) Fluorescent images of the lung tissues of this group are given.
GFP expressing K7M2 or MNNG tumor cells (1×10^6) were delivered by tail vein to nude mice. One day after injection, vehicle, NSC305787 (240 μg/kg/inj) and […] (226 μg/kg/inj) were injected 5 days a week intraperitoneally.

actin = assay: SPR binding to actin (negative control); conditions: data not shown

Structure (SMILES): OC(c1cc(C23CC4CC(CC(C4)C2)C3)nc2c(Cl)cc(Cl)cc12)C1CCCCN1 (stereo not drawn) [NSC305787]
- IC50 [1]: 5.5 µM
- embryos with epiboly defects (zebrafish embryos; 10 μM): 15%
- embryos with epiboly defects (zebrafish embryos; 20 μM): 100%
- invasion of K12 cells (K12 cells; 1 μM): did not have any effect
- invasion of K12 cells (K12 cells; 10 μM): did not have any effect
- invasion of K7M2 cells through HUVEC monolayer (K7M2 cells): inhibited invasion
- number of GFP expressing metastatic foci in lung tissues (MNNG, human OS cells; MNNG cells): not a significant difference
- median survival after tumor cell injection (MNNG, human OS cells; MNNG cells by tail vein, i.p. 5 days a week, vehicle 50.5 days): 49 days
- Kd (actin): 91.4 µM
